Assay results taken from ChEMBL document CHEMBL1201862, “PubChem BioAssay data set” (2004).
Several values for one entry are separate records, joined by “and”; a condition that tells them apart may be missing. Equal entries are not always repeated. Activity calls are given as the source filed them.

Legend:
Cytochrome P450 2D6 = Cytochrome P450 2D6 (Homo sapiens, UniProt P10635); experiment: qHTS Assay for Inhibitors and Substrates of Cytochrome P450 2D6. [Related pubchem assays: 410 ]; type: ADME; settings: read-out: Potency
Sequence of Cytochrome P450 2D6 (P10635 whole entry): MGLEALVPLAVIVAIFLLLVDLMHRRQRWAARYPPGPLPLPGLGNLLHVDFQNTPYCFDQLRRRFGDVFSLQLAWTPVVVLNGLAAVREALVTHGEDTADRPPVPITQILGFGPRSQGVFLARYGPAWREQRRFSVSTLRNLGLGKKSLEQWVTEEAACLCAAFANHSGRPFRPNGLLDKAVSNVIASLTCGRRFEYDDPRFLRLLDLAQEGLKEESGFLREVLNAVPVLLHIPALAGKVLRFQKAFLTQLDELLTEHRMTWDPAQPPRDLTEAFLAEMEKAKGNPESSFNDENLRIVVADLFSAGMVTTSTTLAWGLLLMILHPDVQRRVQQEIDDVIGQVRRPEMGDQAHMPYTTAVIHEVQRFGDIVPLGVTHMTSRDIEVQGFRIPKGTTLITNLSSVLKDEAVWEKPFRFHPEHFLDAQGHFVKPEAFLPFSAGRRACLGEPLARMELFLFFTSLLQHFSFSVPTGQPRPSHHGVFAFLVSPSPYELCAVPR

Cytochrome P450 2C9 = Cytochrome P450 2C9 (Homo sapiens, UniProt P11712); settings: Potency
[1] = target: T1, Eukaryotic translation initiation factor 2-alpha kinase 3 (Homo sapiens, UniProt Q9NZJ5); experiment: Dose response cell-based high-throughput screening assay to measure PERK inhibition. [Related pubchem assays: 1416 ]; type: functional
[2] = target: T1, Eukaryotic translation initiation factor 2-alpha kinase 3; experiment: Counterscreen assay for PERK inhibitors: Dose response cell-based high throughput screening assay to measure inhibition of PERK at 6 hours. [Related pubchem assays: 1522, 1416 ]; type: functional
CAAX prenyl protease 2 [3] = target: CAAX prenyl protease 2 (Saccharomyces cerevisiae S288c, UniProt Q03530); type: biochemical
CAAX prenyl protease 2 [4] = target: CAAX prenyl protease 2 (Homo sapiens, UniProt Q9Y256); experiment: human Rce1 protease inhibitors, dose response, biochemical, yeast membranes, quenched-peptide fluorescence, cherry-pick (AID 588849)
[5] = target: Acyl-homoserine lactone acylase PvdQ (Pseudomonas aeruginosa (strain LESB58), UniProt Q9I194); experiment: P. aeruginosa PvdQ acylase inhibitors, dose response, biochemical, fluorescence, plate reader and imaging, cherry-picks (AID 493231)
[6] = inhibition of K1F phage lysis, E. coli UTI89, bacterial capsule biogenesis inhibitors, alamar blue (AID 488966); type: functional
[7] = target: T2, Voltage-gated N-type calcium channel alpha-1B subunit/Amyloid beta A4 precursor protein-binding family A member 1 (Homo sapiens, UniProt Q00975+Q02410); type: protein assay
T2 sequence (Q00975 whole entry): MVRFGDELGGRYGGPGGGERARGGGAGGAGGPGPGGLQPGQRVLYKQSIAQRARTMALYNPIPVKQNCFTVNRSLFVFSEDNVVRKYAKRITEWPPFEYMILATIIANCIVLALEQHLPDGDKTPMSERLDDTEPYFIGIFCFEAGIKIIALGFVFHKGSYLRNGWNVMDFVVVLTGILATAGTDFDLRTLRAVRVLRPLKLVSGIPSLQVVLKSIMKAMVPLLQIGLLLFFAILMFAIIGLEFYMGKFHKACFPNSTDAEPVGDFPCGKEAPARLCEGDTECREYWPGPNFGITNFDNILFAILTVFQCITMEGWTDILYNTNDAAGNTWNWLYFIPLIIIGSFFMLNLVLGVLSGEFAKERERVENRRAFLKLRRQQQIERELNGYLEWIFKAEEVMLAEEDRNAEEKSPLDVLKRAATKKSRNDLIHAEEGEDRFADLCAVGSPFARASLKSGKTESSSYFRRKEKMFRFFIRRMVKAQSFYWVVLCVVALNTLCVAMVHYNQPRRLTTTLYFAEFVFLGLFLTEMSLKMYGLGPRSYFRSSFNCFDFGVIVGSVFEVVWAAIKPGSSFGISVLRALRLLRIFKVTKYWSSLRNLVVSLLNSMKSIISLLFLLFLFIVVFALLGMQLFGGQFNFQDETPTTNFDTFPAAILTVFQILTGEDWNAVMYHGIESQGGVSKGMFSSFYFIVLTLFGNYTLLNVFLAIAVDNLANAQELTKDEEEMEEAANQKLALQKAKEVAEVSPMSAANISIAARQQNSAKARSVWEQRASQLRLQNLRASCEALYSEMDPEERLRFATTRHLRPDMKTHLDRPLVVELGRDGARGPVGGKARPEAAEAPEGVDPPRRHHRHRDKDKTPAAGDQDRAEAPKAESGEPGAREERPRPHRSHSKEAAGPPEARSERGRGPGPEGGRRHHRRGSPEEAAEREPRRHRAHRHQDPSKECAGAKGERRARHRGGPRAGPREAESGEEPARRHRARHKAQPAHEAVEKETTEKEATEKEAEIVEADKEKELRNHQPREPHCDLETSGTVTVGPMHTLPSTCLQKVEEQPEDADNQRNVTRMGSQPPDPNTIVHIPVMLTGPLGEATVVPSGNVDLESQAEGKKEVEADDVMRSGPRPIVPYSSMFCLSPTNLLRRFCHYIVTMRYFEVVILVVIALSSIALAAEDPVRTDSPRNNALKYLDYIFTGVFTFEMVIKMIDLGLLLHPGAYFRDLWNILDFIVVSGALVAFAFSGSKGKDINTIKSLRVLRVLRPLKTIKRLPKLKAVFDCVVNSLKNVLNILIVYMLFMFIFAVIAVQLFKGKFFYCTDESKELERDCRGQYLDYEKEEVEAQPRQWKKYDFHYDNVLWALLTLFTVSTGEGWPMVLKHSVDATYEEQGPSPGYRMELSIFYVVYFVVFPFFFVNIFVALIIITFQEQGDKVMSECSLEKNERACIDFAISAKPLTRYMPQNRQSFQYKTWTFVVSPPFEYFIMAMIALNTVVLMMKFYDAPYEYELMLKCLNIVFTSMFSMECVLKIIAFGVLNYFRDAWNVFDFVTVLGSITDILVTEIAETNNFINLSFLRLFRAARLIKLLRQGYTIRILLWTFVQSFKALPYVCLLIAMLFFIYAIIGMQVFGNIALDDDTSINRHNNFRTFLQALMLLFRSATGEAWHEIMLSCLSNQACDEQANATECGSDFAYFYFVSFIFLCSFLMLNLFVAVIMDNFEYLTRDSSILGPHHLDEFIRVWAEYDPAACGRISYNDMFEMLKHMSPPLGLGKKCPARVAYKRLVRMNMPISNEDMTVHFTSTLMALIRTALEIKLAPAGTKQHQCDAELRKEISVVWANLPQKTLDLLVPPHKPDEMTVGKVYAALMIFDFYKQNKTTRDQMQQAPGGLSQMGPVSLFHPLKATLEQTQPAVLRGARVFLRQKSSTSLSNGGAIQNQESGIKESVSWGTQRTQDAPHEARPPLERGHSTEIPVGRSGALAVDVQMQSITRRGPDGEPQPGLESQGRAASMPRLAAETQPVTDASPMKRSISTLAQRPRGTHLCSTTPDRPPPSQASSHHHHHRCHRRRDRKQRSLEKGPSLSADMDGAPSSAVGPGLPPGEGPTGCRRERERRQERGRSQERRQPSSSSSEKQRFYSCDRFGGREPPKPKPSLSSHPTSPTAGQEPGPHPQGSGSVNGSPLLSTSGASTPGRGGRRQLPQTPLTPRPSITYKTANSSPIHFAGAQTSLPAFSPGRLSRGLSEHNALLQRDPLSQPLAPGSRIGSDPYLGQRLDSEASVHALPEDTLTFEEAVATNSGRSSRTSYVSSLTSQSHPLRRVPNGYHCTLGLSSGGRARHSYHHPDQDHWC
T2 sequence (Q02410 whole entry): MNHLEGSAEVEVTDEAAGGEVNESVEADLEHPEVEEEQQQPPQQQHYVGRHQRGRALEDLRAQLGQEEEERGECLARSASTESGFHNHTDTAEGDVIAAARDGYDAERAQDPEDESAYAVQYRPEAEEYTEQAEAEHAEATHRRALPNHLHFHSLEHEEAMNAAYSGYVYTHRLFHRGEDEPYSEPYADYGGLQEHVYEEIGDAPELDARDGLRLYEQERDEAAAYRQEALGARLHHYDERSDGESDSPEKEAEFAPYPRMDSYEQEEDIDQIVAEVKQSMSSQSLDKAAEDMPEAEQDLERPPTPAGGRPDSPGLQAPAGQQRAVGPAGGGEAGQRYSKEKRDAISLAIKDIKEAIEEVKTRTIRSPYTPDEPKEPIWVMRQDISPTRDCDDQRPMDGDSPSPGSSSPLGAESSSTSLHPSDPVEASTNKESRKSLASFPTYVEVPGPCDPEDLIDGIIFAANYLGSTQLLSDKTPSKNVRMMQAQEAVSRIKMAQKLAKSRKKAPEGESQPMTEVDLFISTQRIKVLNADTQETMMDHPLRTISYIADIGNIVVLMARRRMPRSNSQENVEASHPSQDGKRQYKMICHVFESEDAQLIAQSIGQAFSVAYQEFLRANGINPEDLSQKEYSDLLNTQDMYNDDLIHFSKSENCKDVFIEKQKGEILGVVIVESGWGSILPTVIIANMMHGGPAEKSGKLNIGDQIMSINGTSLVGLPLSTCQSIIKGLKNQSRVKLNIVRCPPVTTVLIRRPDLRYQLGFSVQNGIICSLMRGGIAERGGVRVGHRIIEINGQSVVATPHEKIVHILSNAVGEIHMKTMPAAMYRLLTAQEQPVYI

Large T antigen = Large T antigen (Simian virus 40, UniProt P03070); type: functional, Betapolyomavirus macacae;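 also: Confirmatory-stage PubChem screen for compounds that inhibit SV40 T antigen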
[8] = target: T2, Voltage-gated N-type calcium channel alpha-1B subunit/Amyloid beta A4 precursor protein-binding family A member 1; type: protein assay; remark: listed apart in the source
[9] = growth suppression of PTEN-null colon cells, dose response, cell-based, HCT116 PTEN knockout (AID 1047); type: functional;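 also: HCT116 colon tumor cells with PTEN knocked out; cells exposed to compound for 60 hours before readout; potency for loss of cell viability measured by luminescence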
[10] = growth suppression of beta-catenin-knockout colon cells, dose response, cell-based, HCT116, human colon tumor (AID 1045); type: functional;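 also: HCT116 colon tumor cells with beta catenin knocked out; cells exposed to compound for 60 hours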
[11] = target: Glucose-6-phosphate 1-dehydrogenase (Homo sapiens, UniProt P11413); experiment: human G6PD enzyme inhibitors, dose response, selectivity assay for P. falciparum G6PD inhibitor project, biochemical, fluorescence (AID 504792); type: functional
[12] = target: DNA dC->dU-editing enzyme APOBEC-3G (Homo sapiens, UniProt Q9HC16); experiment: Dose Response confirmation of small molecule APOBEC3G DNA Deaminase Inhibitors via a fluorescence-based single-stranded DNA deaminase assay. [Related pubchem assays (depositor defined):AID493012, AID493028]; type: functional
[13] = target: Potassium voltage-gated channel subfamily KQT member 2 (Rattus norvegicus, UniProt O88943); experiment: retigabine-insensitive KCNQ2 potentiators, concentration-response, dose response, cell-based, retigabine-insensitive compounds (AID 2654); type: functional
[14] = target: T3, Mannose-6-phosphate isomerase (Homo sapiens, UniProt P34949); experiment: Confirmation of compounds inhibiting phosphomannose isomerase (PMI) via a fluorescence intensity assay using a high concentration of mannose 6-phosphate. [Related pubchem assays (depositor defined):AID1209, AID1220, AID1545, AID1553, AID1620]
T3 sequence (P34949 whole entry): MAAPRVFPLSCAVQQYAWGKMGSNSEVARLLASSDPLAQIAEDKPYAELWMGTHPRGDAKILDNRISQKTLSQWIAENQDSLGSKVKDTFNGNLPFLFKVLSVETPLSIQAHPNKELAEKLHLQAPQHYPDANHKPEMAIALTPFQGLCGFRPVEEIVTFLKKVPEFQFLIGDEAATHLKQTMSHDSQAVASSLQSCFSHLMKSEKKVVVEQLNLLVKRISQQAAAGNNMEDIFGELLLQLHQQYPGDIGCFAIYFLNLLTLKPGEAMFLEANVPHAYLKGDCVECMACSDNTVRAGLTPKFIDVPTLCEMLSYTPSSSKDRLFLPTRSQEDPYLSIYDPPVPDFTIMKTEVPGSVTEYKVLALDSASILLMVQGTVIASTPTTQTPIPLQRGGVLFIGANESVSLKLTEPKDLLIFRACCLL

[15] = target: T3, Mannose-6-phosphate isomerase; experiment: PMI enzyme inhibitors, confirmation, biochemical, fluorescence intensity (AID 1535)
[16] = target: Alkaline phosphatase, placental type (Homo sapiens, UniProt P05187); experiment: PLAP enzyme inhibitors, confirmation, biochemical, luminescence (AID 1512); type: functional
[17] = target: T4, Tyrosine-protein phosphatase non-receptor type 7 (Homo sapiens, UniProt P35236); type: functional
T4 sequence (P35236 whole entry): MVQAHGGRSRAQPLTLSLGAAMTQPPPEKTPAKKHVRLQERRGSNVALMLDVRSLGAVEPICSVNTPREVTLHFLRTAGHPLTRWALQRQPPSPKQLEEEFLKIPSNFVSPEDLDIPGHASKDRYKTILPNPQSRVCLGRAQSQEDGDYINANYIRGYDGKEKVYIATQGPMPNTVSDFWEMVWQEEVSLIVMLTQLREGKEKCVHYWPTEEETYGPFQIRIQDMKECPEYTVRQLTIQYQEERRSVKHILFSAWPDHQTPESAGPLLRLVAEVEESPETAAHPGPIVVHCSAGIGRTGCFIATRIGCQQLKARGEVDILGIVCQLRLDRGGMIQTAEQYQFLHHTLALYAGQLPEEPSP

[18] = target: Glyceraldehyde-3-phosphate dehydrogenase (Homo sapiens, UniProt P04406)
[19] = target: T5, Dual specificity protein phosphatase 6 (Rattus norvegicus, UniProt Q64346)
T5 sequence (Q64346 whole entry): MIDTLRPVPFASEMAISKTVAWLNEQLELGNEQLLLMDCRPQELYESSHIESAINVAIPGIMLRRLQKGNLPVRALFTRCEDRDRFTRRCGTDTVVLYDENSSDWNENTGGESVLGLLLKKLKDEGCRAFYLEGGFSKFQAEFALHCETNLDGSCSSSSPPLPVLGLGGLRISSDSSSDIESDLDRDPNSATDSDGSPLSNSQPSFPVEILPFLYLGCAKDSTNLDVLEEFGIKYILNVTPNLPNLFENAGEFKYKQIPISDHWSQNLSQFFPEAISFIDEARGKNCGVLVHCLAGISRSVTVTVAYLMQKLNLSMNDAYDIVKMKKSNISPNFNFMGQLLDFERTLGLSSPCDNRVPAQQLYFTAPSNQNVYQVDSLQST

[20] = target: T6, Dual specificity protein phosphatase 3 (Homo sapiens, UniProt P51452); experiment: SAR VHR1 Fluorescent Assay for In Vitro dose response studies. [Related pubchem assays (depositor defined):AID1654, AID1661, AID1878, AID1992, AID2004, AID2070, AID2085]; type: functional
T6 sequence (P51452 whole entry): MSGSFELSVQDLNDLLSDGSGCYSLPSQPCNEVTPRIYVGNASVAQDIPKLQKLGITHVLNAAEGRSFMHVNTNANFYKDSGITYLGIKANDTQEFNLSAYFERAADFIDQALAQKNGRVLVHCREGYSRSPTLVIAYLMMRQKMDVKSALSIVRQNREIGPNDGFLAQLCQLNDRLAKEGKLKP

[21] = target: T6, Dual specificity protein phosphatase 3; experiment: MOA VHR1 Fluorescent secondary assay for identification of redox-state modulating compounds. [Related pubchem assays (depositor defined):AID1654, AID1661, AID1878, AID1957]
[22] = target: T4, Tyrosine-protein phosphatase non-receptor type 7; experiment: redox-dependent HePTP inhibition, mechanism study, biochemical, fluorescence (AID 2068); type: functional
[23] = target: T5, Dual specificity protein phosphatase 6; type: functional
Phosphomannomutase 2 = Phosphomannomutase 2 (Homo sapiens, UniProt O15305); experiment: Counter screen SAR assay for PMM2 inhibitors via a fluorescence intensity assay. [Related pubchem assays (depositor defined):AID1545, AID1574]
[24] = target: Phosphoethanolamine/phosphocholine phosphatase (Homo sapiens, UniProt Q8TCT1); experiment: SAR assay for compounds that inhibit PHOSPHO1. [Related pubchem assays (depositor defined):AID1545, AID1565, AID1574]
[25] = cytotoxicity in NIH/3T3 mouse fibroblasts, dose response, cytotoxicity control, cell-based, mouse embryonic fibroblasts, dry powder, set 2 (AID 493247); type: functional; settings: Fibroblast
Trypanosoma cruzi = experiment: growth inhibition of intracellular Trypanosoma cruzi, dose response, cell-based, plate reader, dry powder, set 3 (AID 493197); type: functional
[26] = target: Sphingosine 1-phosphate receptor 4 (Homo sapiens, UniProt O95977); experiment: S1P4 receptor agonists, human, late-stage follow-up, cell-based, fluorescence, synthesized compounds (AID 463107); type: functional
cells [27] = type: functional, cell-based
[28] = inhibitors of intracellular T. cruzi replication, confirmation, NIH3T3 host cells, beta-gal luminescence (AID 2044); type: functional, cell-based;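 also: intracellular parasites grown in NIH/3T3 mouse fibroblasts as host cells; luminescent beta-galactosidase reporter signal from transgenic T. cruzi replicating inside host cells; inhibitors lower the luminescence signal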
cells [29] = type: functional, cell-based; remark: listed apart in the source
[30] = target: T7, Kappa-type opioid receptor (Homo sapiens, UniProt P41145); type: functional
[31] = cytotoxicity toward NIH3T3 fibroblasts, dose response, counter-screen, cell-based, ATP luminescence, mouse fibroblasts (AID 2010); type: functional;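 also: cells exposed to compound for about 90 hours before reading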
Beta-galactosidase [32] = target: T8, Beta-galactosidase (Escherichia coli, UniProt Q8VNN2); type: functional
T8 sequence (Q8VNN2 whole entry): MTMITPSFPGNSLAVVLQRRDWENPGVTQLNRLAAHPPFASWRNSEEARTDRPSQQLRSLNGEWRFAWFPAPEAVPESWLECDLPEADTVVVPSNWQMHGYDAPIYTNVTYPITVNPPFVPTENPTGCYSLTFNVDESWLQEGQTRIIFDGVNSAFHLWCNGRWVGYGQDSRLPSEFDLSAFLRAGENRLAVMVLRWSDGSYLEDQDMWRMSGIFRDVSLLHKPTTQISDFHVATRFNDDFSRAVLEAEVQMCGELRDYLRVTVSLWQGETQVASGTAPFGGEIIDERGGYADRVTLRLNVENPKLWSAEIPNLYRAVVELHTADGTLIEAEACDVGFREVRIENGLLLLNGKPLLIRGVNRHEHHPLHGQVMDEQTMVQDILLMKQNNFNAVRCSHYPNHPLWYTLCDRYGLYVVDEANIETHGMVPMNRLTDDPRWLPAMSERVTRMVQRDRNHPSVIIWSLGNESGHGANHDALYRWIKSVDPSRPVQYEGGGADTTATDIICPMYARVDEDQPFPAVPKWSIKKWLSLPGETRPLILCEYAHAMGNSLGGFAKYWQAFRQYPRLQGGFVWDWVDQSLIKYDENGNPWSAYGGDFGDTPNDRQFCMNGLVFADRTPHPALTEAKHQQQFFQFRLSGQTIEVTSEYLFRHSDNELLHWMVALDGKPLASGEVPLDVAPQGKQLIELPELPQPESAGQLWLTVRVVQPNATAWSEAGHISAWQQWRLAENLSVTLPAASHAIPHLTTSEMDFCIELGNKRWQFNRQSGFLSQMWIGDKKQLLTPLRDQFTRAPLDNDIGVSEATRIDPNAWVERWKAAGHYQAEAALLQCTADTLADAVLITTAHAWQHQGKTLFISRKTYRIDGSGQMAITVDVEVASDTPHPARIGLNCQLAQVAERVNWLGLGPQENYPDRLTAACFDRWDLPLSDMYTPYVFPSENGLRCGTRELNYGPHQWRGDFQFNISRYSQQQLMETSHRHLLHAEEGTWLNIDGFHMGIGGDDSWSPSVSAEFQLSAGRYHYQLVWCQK

[33] = target: T7, Kappa-type opioid receptor; type: functional; remark: listed apart in the source
[34] = target: T9, Microphthalmia-associated transcription factor (Homo sapiens, UniProt O75030); experiment: TRPM1 promoter luciferase signal decrease, dose response, MITF inhibitor project, cell-based, SK-MEL-5, cherry-picked, set 3 (AID 493073); type: functional
T9 sequence (O75030 whole entry): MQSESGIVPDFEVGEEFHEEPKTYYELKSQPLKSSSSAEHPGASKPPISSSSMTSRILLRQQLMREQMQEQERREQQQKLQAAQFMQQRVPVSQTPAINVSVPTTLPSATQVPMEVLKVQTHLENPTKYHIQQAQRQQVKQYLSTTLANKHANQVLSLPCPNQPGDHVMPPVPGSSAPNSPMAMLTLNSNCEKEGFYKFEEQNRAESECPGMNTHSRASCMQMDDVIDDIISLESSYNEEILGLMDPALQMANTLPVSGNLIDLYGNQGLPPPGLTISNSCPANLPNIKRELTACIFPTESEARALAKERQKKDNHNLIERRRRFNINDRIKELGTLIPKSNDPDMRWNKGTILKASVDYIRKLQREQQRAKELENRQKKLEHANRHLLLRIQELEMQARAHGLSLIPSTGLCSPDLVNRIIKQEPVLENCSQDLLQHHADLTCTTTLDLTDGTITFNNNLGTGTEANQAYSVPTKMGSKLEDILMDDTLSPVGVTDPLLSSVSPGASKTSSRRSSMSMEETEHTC

INS1 = experiment: beta cell apoptosis inhibitors, cytokine rescue, dose response, luminescence, retest (AID 449756); type: functional, cell-based; settings: Rattus norvegicus;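 also: cell death triggered by IL-1 beta plus TNF-alpha plus IFN-gamma mixture; protective hits raise ATP signal compared with cytokine alone wells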
Vero = experiment: cells; type: functional; settings: Chlorocebus sabaeus
[35] = Luminescence Cell-Based Dose Retest to Confirm Inhibitors of Cancer Stem Cells. [Related pubchem assays (depositor defined):AID2717, AID2721]; type: functional; settings: Homo sapiens
[36] = target: C-C chemokine receptor type 6 (Homo sapiens, UniProt P51684); experiment: CCR6 receptor antagonists, dose response, cell-based, luminescent beta-arrestin readout (AID 504728); type: functional
Beta-galactosidase [37] = target: T8, Beta-galactosidase; experiment: beta-galactosidase enzyme inhibitors and activators, dose response, artefact control for CCR6 antagonist project, biochemical, E. coli enzyme, set 3 (AID 504712); type: functional

COC(=O)[C@@H]1[C@H]2C[C@H]3c4[nH]c5cc(OC)ccc5c4CCN3C[C@@H]2C[C@@H](OC(=O)c2cc(OC)c(OC)c(OC)c2)[C@@H]1OC
AC50 (Cytochrome P450 2D6): 39.8 µM (inconclusive) and 12.6 µM (inconclusive) | AC50 (Cytochrome P450 2C9): 15.8 µM (inconclusive)

Cc1cc2c(NC(=O)Nc3ccc(F)cc3)cccc2nn1
EC50 [1]: > 55.7 µM (not active) | EC50 [2]: > 55.7 µM (not active)

Cc1cc(C)nc(SCc2cn3c(C)cc(C)nc3n2)n1
AC50 (CAAX prenyl protease 2 [3]): 35.7 µM (active) | AC50 (CAAX prenyl protease 2 [4]): 35.2 µM (active)

CCNC(=O)COc1ccc2ccccc2c1
AC50 [5]: 11.7 µM (active)

Cc1nc(NC(=O)c2ccco2)sc1C(=O)Nc1ccc(Br)cc1
IC50 [6]: > 75 µM (active)

Cc1cc(C)c2c(=O)n(CC(=O)N3CCC(N4CCCCC4)CC3)sc2n1
IC50 [7]: 16.2 µM (active) | IC50 (Large T antigen): 28.1 µM (active) | IC50 [8]: > 50 µM (inactive) | EC50 [9]: 22.6 µM (active) | EC50 [10]: 18.6 µM (active) | IC50 [11]: 37 µM (inactive) | IC50 [12]: 9.83 µM (active)

Cc1cccc(NC(=O)Nc2cccnc2)c1C
EC50 [13]: 16 µM (active)

CCCCN1C(=O)/C(=N\Nc2ccccc2O)c2ccccc21
IC50 [14]: > 100 µM (inactive) | IC50 [15]: > 100 µM (inactive) | IC50 [16]: > 100 µM (inactive)

O=c1/c(=C/c2ccc(-c3ccccc3[N+](=O)[O-])o2)sc2nc3cc(Br)cnc3n12
IC50 [17]: 43.9 µM (active) | IC50 [18]: > 100 µM (not active) | IC50 [19]: 49 µM (active) | IC50 [20]: 12.1 µM (active) | IC50 [21]: 5.53 µM (active) | IC50 [22]: 4.13 µM (active) | IC50 [23]: 55.5 µM (active)

Cc1c(Cl)cccc1-n1sc2cc(F)ccc2c1=O
IC50 [15]: 28.6 µM (active) | IC50 (Phosphomannomutase 2): 8.74 µM (active) | IC50 [24]: 1.53 µM (inactive)

O=C(N/N=C/c1ccc([N+](=O)[O-])o1)c1ccccn1
AC50 [25]: 28 µM (active) | AC50 (Trypanosoma cruzi): 1.47 µM (active)

Cc1ccc(OCCOc2ccc(C)nc2[N+](=O)[O-])c([N+](=O)[O-])n1
EC50 [26]: > 50 µM (inactive)

C/C(=N\NC(=O)Cc1ccc(Cl)cc1)c1ccccn1
EC50 (cells [27]): 54.9 µM (active) | EC50 [28]: 0.635 µM (active) | EC50 (cells [29]): 57.6 µM (active) | IC50 [30]: 5.02 µM (active) | EC50 [31]: < 6 µM (inconclusive) | EC50 (Beta-galactosidase [32]): > 31.5 µM (inactive) | IC50 [33]: > 32 µM | AC50 [34]: 4.22 µM (active) | AC50 (INS1): 1.05 µM (active) | CC50 (Vero): 2.29 µM (active)

C=C(CC[C@@H](O)C(C)(C)O)[C@H]1CC[C@]2(C)[C@@H]1CC[C@@H]1[C@@]3(C)CC[C@H](O)C(C)(C)C3CC[C@]12C (stereo not given in full)
AC50 [35]: 0.561 µM (active) | IC50 [36]: > 66.6 µM (inactive) | IC50 (Beta-galactosidase [37]): > 66.6 µM (inactive)
